EC50 data for 11 compounds are collected here from ChEMBL document CHEMBL1136400, “Substituted bridged phenyl piperidines: orally active growth hormone secretagogues” (Bioorg Med Chem Lett, 2003).

The species named for the test is Rattus norvegicus. Briefly: Effective concentration for their ability to release growth hormone in the rat pituitary cell assay. The class given is functional, organism-based, Pituitary gland cell.
The mark [1] stands for this setting: Rattus norvegicus, Pituitary gland cell.

What is called EC50 is the concentration at which the effect is half-maximal. Read a low EC50 as greater potency. For the compound `CC(C)(N)C(=O)N[C@H](Cc1c[nH]c2ccccc12)C(=O)N1C2CCC1CC(c1ccccc1)C2` (mixture of isomers), a half-maximal response under setting [1] (EC50) required 62.8 nM.
On the same count and under the same terms, next, `CCNC(=O)c1ccccc1C1CC2CCC(C1)N2C(=O)[C@@H](CCCc1ccccc1)NC(=O)C(C)(C)N` (mixture of isomers): 1.3 nM; `Cc1ccccc1C1CC2CCC(C1)N2C(=O)[C@@H](CCCc1ccccc1)NC(=O)C(C)(C)N` (mixture of isomers): 78.4 nM.
Under setting [1], `CC(C)(N)C(=O)N[C@H](CCCc1ccccc1)C(=O)N1C2CCC1CC(c1ccccc1)C2` (mixture of isomers) came in with a 50% effective concentration (EC50) of 24 nM.
The same measure, in the same setting: the result for `Cc1ccccc1C1CC2CCC(C1)N2C(=O)[C@@H](Cc1c[nH]c2ccccc12)NC(=O)C(C)(C)N` (mixture of isomers) reads 33.2 nM.
In the case of `CCOC(=O)c1ccccc1C1CC2CCC(C1)N2C(=O)[C@@H](CCCc1ccccc1)NC(=O)C(C)(C)N` (mixture of isomers), it took 90 nM to reach a half-maximal effect (pituitary gland cell) (EC50).
Under “pituitary gland cell”, `CCOC(=O)c1ccccc1C1CC2CCC(C1)N2C(=O)[C@@H](CCCc1ccccc1)NC(=O)C(C)(C)N` (stereo in doubt; 26f) displayed a 50% effective concentration (EC50) of 48 nM.
With `CC(C)(N)C(=O)N[C@H](CCCc1ccccc1)C(=O)N1C2CCC1CC(c1ccccc1C(=O)O)C2` (stereo in doubt; 26g), a half-maximal effect (pituitary gland cell) (EC50) was put at 9.6 nM.
On the same count and under the same terms, next, `CCOC(=O)c1ccccc1C1CC2CCC(C1)N2C(=O)[C@@H](CCCc1ccccc1)NC(=O)C(C)(C)N` (stereo in doubt; 26h): 324 nM; `CC(C)(N)C(=O)N[C@H](CCCc1ccccc1)C(=O)N1C2CCC1CC(c1ccccc1C(=O)O)C2` (stereo in doubt; 26i): over 500 nM.
`CC(C)(N)C(=O)N[C@H](COCc1ccccc1)C(=O)N1CCC2(CC1)CN(S(C)(=O)=O)c1ccccc12` [IBUTAMOREN] came in with an EC50 under setting [1] of 1 nM.
